Test results reported in publication PMC9774241, “Associating Biological Activity and Predicted Structure of Antimicrobial Peptides from Amphibians and Insects” (Antibiotics, 2022).
Converted amounts (≈) assume the structure as drawn. Residues, ends and D or L forms follow the SMILES beside them. No end group written: not given here.

Key:
porcine red blood cells = experiment: Hemolysis assay (HC50); format: cell-based, pig; details: porcine RBCs, highest concentration tested 128 µg/mL
Protocol: Peptides were evaluated for toxicity using three independent hemolysis experiments. Whole blood from healthy donor pigs, supplemented with Na Citrate, was purchased from Lampire Biological Laboratories (Pipersville, PA, USA). Red blood cells (RBCs) were washed and isolated by three centrifugation cycles using Roswell Park Memorial Institute medium (RPMI; Thermo-Fisher Scientific) to create a 1% (v/v) RBC solution. […] Following a minimum 30 min incubation at 37 °C, plates were centrifuged and ½ volume from each supernatant was transferred to a new 96-well plate. The absorbance of these wells was measured at 415 nm. To quantify hemolytic activity and determine the AMP concentration that lyses 50% of the RBCs (HC50), absorbance reading from wells containing RBCs treated with 11 μL of a 2% TritonX-100 detergent solution (TX-100) or RPMI (AMP solvent-only) were used to define 100% and 0% hemolysis, respectively. All centrifugation steps were performed at 500× g for five minutes in an Allegra-6R centrifuge (Beckman Coulter, Brea, CA, USA).

[1] = system: Escherichia coli ATCC 25922; format: cell-based; details: broth microdilution in MHB, peptide 128 down to 0.5 µg/mL, 20–24 h at 37 °C, no visible growth; range of three independent experiments
In short: (§1)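 CLSI broth microdilution in MHB, adapted for cationic peptides, in polypropylene plates; peptides 2-fold from 128 to 0.5 µg/mL, inoculum 2–8 × 10^5 cfu/mL. Incubated 20–24 h at 37 °C; MIC = lowest concentration with no visible growth.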

[2] = system: Salmonella enterica serovar Enteritidis (human clinical isolate); format: cell-based; details: broth microdilution in MHB, peptide 128 down to 0.5 µg/mL, 20–24 h at 37 °C, no visible growth; range of three independent experiments
In short: as §1

[3] = system: Staphylococcus aureus ATCC 29213; format: cell-based; details: broth microdilution in MHB, peptide 128 down to 0.5 µg/mL, 20–24 h at 37 °C, no visible growth; range of three independent experiments
In short: as §1

Row | Molecule | hemolytic activity (in words) (porcine red blood cells) | MIC, E. coli ATCC 25922 [1] [µg/mL] | MIC, Salmonella Enteritidis [2] [µg/mL] | MIC, S. aureus ATCC 29213 [3] [µg/mL]
1 | RPRPQQVPPRPPHPRLRR [PaVa1] | not toxic |  |  | 
2 | CC(C)C[C@H](NC(=O)CNC(=O)[C@H](CO)NC(=O)[C@@H](NC(=O)[C@@H](NC(=O)[C@H](CS)NC(=O)[C@H](CC(C)C)NC(=O)[C@@H](NC(=O)[C@H](CCCCN)NC(=O)[C@H](CCCCN)NC(=O)CNC(=O)[C@@H](NC(=O)CNC(=O)[C@H](CC(C)C)NC(=O)[C@@H](NC(=O)[C@H](CCCCN)NC(=O)CNC(=O)[C@H](CC(C)C)NC(=O)[C@H](CC(C)C)NC(=O)CN)C(C)C)C(C)C)C(C)C)C(C)C)C(C)C)C(=O)N[C@@H](CS)C(=O)O [PeNi2] (H-GLLGKVLGVGKKVLCVVSGLC-OH; N-terminus and C-terminus assumed) |  | 4 (≈ 1.96 µM) | 16 to 32 | 4 (≈ 1.96 µM)
3 | CC[C@H](C)[C@H](NC(=O)CN)C(=O)N[C@@H](Cc1ccccc1)C(=O)NCC(=O)NCC(=O)N[C@@H](Cc1c[nH]cn1)C(=O)N[C@@H](CC(C)C)C(=O)N[C@@H](CCCCN)C(=O)N[C@H](C(=O)NCC(=O)N[C@@H](CCCCN)C(=O)N[C@@H](CCCCN)C(=O)N[C@H](C(=O)N[C@@H](C)C(=O)N[C@@H](CS)C(=O)NCC(=O)N[C@@H](CC(C)C)C(=O)N[C@@H](CO)C(=O)NCC(=O)N[C@@H](CC(C)C)C(=O)N[C@@H](CS)C(=O)O)[C@@H](C)CC)C(C)C [OdTo2] (H-GIFGGHLKVGKKIACGLSGLC-OH; N-terminus and C-terminus assumed) |  | 32 (≈ 15.5 µM) | > 128 | > 128
4 | AGLQFPVGRIHRHLKTR [PeNi6] |  | > 128 | > 128 | > 128
5 | GLISGILGAGKKVLC [OdMa9] |  | 64 to 128 | 128 | > 128
6 | CC(C)C[C@H](NC(=O)CN)C(=O)N[C@@H](CC(C)C)C(=O)NCC(=O)N[C@@H](CCCCN)C(=O)N[C@H](C(=O)N[C@@H](CC(C)C)C(=O)NCC(=O)N[C@H](C(=O)NCC(=O)N[C@@H](CCCCN)C(=O)N[C@@H](CCCCN)C(=O)N[C@H](C(=O)N[C@@H](CC(C)C)C(=O)N[C@@H](CS)C(=O)NCC(=O)N[C@H](C(=O)N[C@H](C(=O)NCC(=O)N[C@@H](CCCNC(=N)N)C(=O)N[C@@H](CCC(=O)O)C(=O)N[C@@H](CCCNC(=N)N)C(=O)N[C@@H](CS)C(=O)N[C@@H](CCC(N)=O)C(=O)O)[C@@H](C)O)C(C)C)C(C)C)C(C)C)C(C)C [PeNi5] (H-GLLGKVLGVGKKVLCGVTGRERCQ-OH; N-terminus and C-terminus assumed) |  | 32 (≈ 12.9 µM) | 64 (≈ 25.9 µM) | > 128
7 | CC[C@H](C)[C@H](NC(=O)CN)C(=O)N[C@@H](CC(C)C)C(=O)N[C@@H](CO)C(=O)NCC(=O)N[C@@H](CC(C)C)C(=O)N[C@@H](CC(C)C)C(=O)NCC(=O)N[C@@H](C)C(=O)NCC(=O)N[C@@H](CCCCN)C(=O)N[C@@H](CCCCN)C(=O)N[C@@H](CC(C)C)C(=O)N[C@@H](C)C(=O)N[C@@H](CS)C(=O)NCC(=O)N[C@@H](CC(C)C)C(=O)N[C@H](C(=O)NCC(=O)N[C@@H](CC(C)C)C(=O)N[C@@H](CS)C(=O)O)[C@@H](C)CC [OdTo1] (H-GILSGLLGAGKKLACGLIGLC-OH; N-terminus and C-terminus assumed) |  | 8 (≈ 4.09 µM) | 32 to 64 | 8 to 16
8 | GIFGGLLKEGKKIACGLSGLC [OdTo3, rAMPage-discovered AMP, Odorrana tormota] |  | 32 | > 128 | > 128
